According to the supplement of paper PMC10733146:

Experiments:
Experiment in all cases: viability relative to DMSO control (fraction); higher = less drug effect (more viable cells)
Conditions in all cases: 48 h
[1] = compound: Nc1nc(Cl)nc2c1ncn2[C@H]1C[C@H](O)[C@@H](CO)O1 [Cladribine]
In short: (§1)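 In 384-well plates with compounds pre-plated at five concentrations (one well per concentration), primary mononuclear tumour cells were plated at 4 × 10^4 cells per well. The cells came from blood or bone marrow by Ficoll isolation or from processed lymph node, and were used fresh or cryopreserved. Culture ran for 48 h at 37 °C and 5% CO2 in RPMI-1640 containing penicillin/streptomycin, L-glutamine and human serum. Viability was read as CellTiter-Glo luminescence, normalised to the median of 16 inner DMSO wells.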

[2] = compound: O=C(NCC1(c2nc(-c3ccccc3)cs2)CCOCC1)c1cccc(-c2noc(C(F)(F)F)n2)c1 [TMP269]
In short: as §1

[3] = compound: CC#CC(=O)N1CC[C@@H](n2c(=O)n(-c3ccc(Oc4ccccc4)cc3)c3c(N)ncnc32)C1 [ONO-4059]
In short: as §1

[4] = compound: OC[C@H]1O[C@@H](n2cnc3c2N=CNC[C@H]3O)C[C@@H]1O [Pentostatin]
In short: as §1

[5] = compound: CC[C@]1(O)C[C@H]2CN(CCc3c([nH]c4ccccc34)[C@@](C(=O)OC)(c3cc4c(cc3OC)N(C=O)[C@H]3[C@@](O)(C(=O)OC)[C@H](OC(C)=O)[C@]5(CC)C=CCN6CC[C@]43[C@@H]65)C2)C1 [Vincristine]
In short: as §1

[6] = compound: COc1c(Cl)cc2c([nH]c3cnccc32)c1NC(=O)c1cccnc1C [MLN-120B]
In short: as §1

[7] = compound: CC(C)(O)CNc1nc(Nc2ccnc(C(F)(F)F)c2)nc(-c2cccc(C(F)(F)F)n2)n1 [AG-221 (Enasidinib)]
In short: as §1

[8] = compound: CC(C)(C)c1cc(NC(=O)Nc2ccc(-c3cn4c(n3)sc3cc(OCCN5CCOCC5)ccc34)cc2)no1 [Quizartinib]
In short: as §1

[9] = compound: CC(C)C[C@H](NC(=O)[C@H](CCc1ccccc1)NC(=O)CN1CCOCC1)C(=O)N[C@@H](Cc1ccccc1)C(=O)N[C@@H](CC(C)C)C(=O)[C@@]1(C)CO1 [Carfilzomib]
In short: as §1

[10] = compound: COC1=CC(c2cc3ccccc3[nH]2)=N/C1=C\c1[nH]c(C)cc1C [Obatoclax mesylate]
In short: as §1

[11] = compound: Nc1nc2n[nH]nc2c(=O)[nH]1 [8-Azaguanin]
In short: as §1

[12] = compound: Cc1cc(Nc2cc(N3CCN(C)CC3)nc(Sc3ccc(NC(=O)C4CC4)cc3)n2)n[nH]1 [Tozasertib]
In short: as §1

[13] = compound: CC[C@@H]1C(=O)N(C)c2cnc(Nc3ccc(C(=O)N[C@H]4CC[C@H](N5CCN(CC6CC6)CC5)CC4)cc3OC)nc2N1C(C)C [BI6727]
In short: as §1

[14] = compound: CC(C)N(C[C@H]1O[C@@H](n2cnc3c(N)ncnc32)[C@H](O)[C@@H]1O)[C@H]1C[C@@H](CCc2nc3cc(C(C)(C)C)ccc3[nH]2)C1 [EPZ-5676]
In short: as §1

primary MCL patient cells (S041) gave a viability ([1]; 0.024 µM) of 0.833, a viability ([1]; 0.12 µM) of 0.228 and a viability ([1]; 0.6 µM) of 0.0823. It also gave a viability ([1]; 3 µM) of 0.0588, a viability ([1]; 15 µM) of 0.047 and a viability ([2]; 0.024 µM) of 1.02. It also gave a viability ([2]; 0.12 µM) of 1.08, a viability ([2]; 0.6 µM) of 1.06 and a viability ([2]; 3 µM) of 1.01. For the same test system, the viability ([2]; 15 µM) was 0.942, the viability ([3]; 0.0016 µM) was 0.927 and the viability ([3]; 0.008 µM) was 0.877. It also gave a viability ([3]; 0.04 µM) of 0.819, a viability ([3]; 0.2 µM) of 0.92 and a viability ([3]; 1 µM) of 0.875. The viability ([4]; 0.03 µM) was 0.958, the viability ([4]; 0.15 µM) was 0.939 and the viability ([4]; 0.75 µM) was 0.905. The viability ([4]; 3.75 µM) was 0.904, the viability ([4]; 18.76 µM) was 0.816 and the viability ([5]; 0.016 µM) was 0.667. The viability ([5]; 0.08 µM) was 0.59, the viability ([5]; 0.4 µM) was 0.519 and the viability ([5]; 2 µM) was 0.475. For the same test system, the viability ([5]; 10 µM) was 0.355, the viability ([6]; 0.024 µM) was 1.02 and the viability ([6]; 0.12 µM) was 0.961. It also gave a viability ([6]; 0.6 µM) of 1.02, a viability ([6]; 3 µM) of 0.92 and a viability ([6]; 15 µM) of 0.924. The viability ([7]; 0.024 µM) was 0.887, the viability ([7]; 0.12 µM) was 0.838 and the viability ([7]; 0.6 µM) was 0.959. The viability ([7]; 3 µM) was 0.882, the viability ([7]; 15 µM) was 0.886 and the viability ([8]; 0.016 µM) was 1.07. It also gave a viability ([8]; 0.08 µM) of 1.11, a viability ([8]; 0.4 µM) of 1.09 and a viability ([8]; 2 µM) of 1.06. The viability ([8]; 10 µM) was 0.964, the viability ([9]; 0.00016 µM) was 1.01 and the viability ([9]; 0.0008 µM) was 0.345. The viability ([9]; 0.004 µM) was 0.0174, the viability ([9]; 0.02 µM) was 0.0136 and the viability ([9]; 0.1 µM) was 0.0192. The viability ([10]; 0.024 µM) was 1.02, the viability ([10]; 0.12 µM) was 0.924 and the viability ([10]; 0.6 µM) was 0.647. For the same test system, the viability ([10]; 3 µM) was 0.428, the viability ([10]; 15 µM) was 0.178 and the viability ([11]; 0.032 µM) was 0.996. For the same test system, the viability ([11]; 0.16 µM) was 0.958, the viability ([11]; 0.8 µM) was 0.77 and the viability ([11]; 4 µM) was 0.612. For the same test system, the viability ([11]; 20 µM) was 0.391, the viability ([12]; 0.024 µM) was 0.991 and the viability ([12]; 0.12 µM) was 0.91. For the same test system, the viability ([12]; 0.6 µM) was 0.912, the viability ([12]; 3 µM) was 0.748 and the viability ([12]; 15 µM) was 0.652. The viability ([13]; 0.024 µM) was 0.986, the viability ([13]; 0.12 µM) was 0.967 and the viability ([13]; 0.6 µM) was 0.873. The viability ([13]; 3 µM) was 0.76, the viability ([13]; 15 µM) was 0.35 and the viability ([14]; 0.0032 µM) was 0.925. The viability ([14]; 0.016 µM) was 0.99, the viability ([14]; 0.08 µM) was 0.925 and the viability ([14]; 0.4 µM) was 0.928. The viability ([14]; 2 µM) was 0.983.
For primary AML patient cells (S002), the viability ([1]; 0.024 µM) was 0.456, the viability ([1]; 0.12 µM) was 0.412 and the viability ([1]; 0.6 µM) was 0.358. It also gave a viability ([1]; 3 µM) of 0.365, a viability ([1]; 15 µM) of 0.349 and a viability ([2]; 0.024 µM) of 0.995. The viability ([2]; 0.12 µM) was 1.03, the viability ([2]; 0.6 µM) was 1.02 and the viability ([2]; 3 µM) was 0.83. It also gave a viability ([2]; 15 µM) of 0.747, a viability ([3]; 0.0016 µM) of 1.07 and a viability ([3]; 0.008 µM) of 1.08. For the same test system, the viability ([3]; 0.04 µM) was 0.919, the viability ([3]; 0.2 µM) was 0.971 and the viability ([3]; 1 µM) was 0.997. The viability ([4]; 0.03 µM) was 0.785, the viability ([4]; 0.15 µM) was 0.701 and the viability ([4]; 0.75 µM) was 1.08. For the same test system, the viability ([4]; 3.75 µM) was 0.835, the viability ([4]; 18.76 µM) was 1.07 and the viability ([5]; 0.016 µM) was 1.11. It also gave a viability ([5]; 0.08 µM) of 1.18, a viability ([5]; 0.4 µM) of 1.14 and a viability ([5]; 2 µM) of 0.99. For the same test system, the viability ([5]; 10 µM) was 0.961, the viability ([6]; 0.024 µM) was 0.876 and the viability ([6]; 0.12 µM) was 0.994. For the same test system, the viability ([6]; 0.6 µM) was 0.805, the viability ([6]; 3 µM) was 0.811 and the viability ([6]; 15 µM) was 0.619. It also gave a viability ([7]; 0.024 µM) of 0.784, a viability ([7]; 0.12 µM) of 0.841 and a viability ([7]; 0.6 µM) of 0.857. For the same test system, the viability ([7]; 3 µM) was 0.8, the viability ([7]; 15 µM) was 0.693 and the viability ([8]; 0.016 µM) was 1.11. The viability ([8]; 0.08 µM) was 1.07, the viability ([8]; 0.4 µM) was 1.06 and the viability ([8]; 2 µM) was 1.18. It also gave a viability ([8]; 10 µM) of 1.07, a viability ([9]; 0.00016 µM) of 0.941 and a viability ([9]; 0.0008 µM) of 0.633. It also gave a viability ([9]; 0.004 µM) of 0.195, a viability ([9]; 0.02 µM) of 0.0988 and a viability ([9]; 0.1 µM) of 0.0663. The viability ([10]; 0.024 µM) was 0.904, the viability ([10]; 0.12 µM) was 0.841 and the viability ([10]; 0.6 µM) was 0.497. It also gave a viability ([10]; 3 µM) of 0.322, a viability ([10]; 15 µM) of 0.142 and a viability ([11]; 0.032 µM) of 1.06. The viability ([11]; 0.16 µM) was 1.01, the viability ([11]; 0.8 µM) was 1.01 and the viability ([11]; 4 µM) was 0.827. For the same test system, the viability ([11]; 20 µM) was 0.376, the viability ([12]; 0.024 µM) was 1.09 and the viability ([12]; 0.12 µM) was 0.779. It also gave a viability ([12]; 0.6 µM) of 0.738, a viability ([12]; 3 µM) of 0.647 and a viability ([12]; 15 µM) of 0.474. It also gave a viability ([13]; 0.024 µM) of 0.839, a viability ([13]; 0.12 µM) of 0.702 and a viability ([13]; 0.6 µM) of 0.553. It also gave a viability ([13]; 3 µM) of 0.343, a viability ([13]; 15 µM) of 0.263 and a viability ([14]; 0.0032 µM) of 0.98. For the same test system, the viability ([14]; 0.016 µM) was 1.08, the viability ([14]; 0.08 µM) was 0.936 and the viability ([14]; 0.4 µM) was 1.01. For the same test system, the viability ([14]; 2 µM) was 1.04.
